In patent publication US6033823A, “Mutated penicillin G acylase genes” (priority 1994, dated 2000):

Biological target: T1, Alcaligenes faecalis Penicillin G acylase mutant B:L56K (Alcaligenes faecalis, UniProt O34142, L321K)
T1 construct: alpha 202 aa, beta 551 aa; recombinant, E. coli host
T1 sequence (O34142 27-228): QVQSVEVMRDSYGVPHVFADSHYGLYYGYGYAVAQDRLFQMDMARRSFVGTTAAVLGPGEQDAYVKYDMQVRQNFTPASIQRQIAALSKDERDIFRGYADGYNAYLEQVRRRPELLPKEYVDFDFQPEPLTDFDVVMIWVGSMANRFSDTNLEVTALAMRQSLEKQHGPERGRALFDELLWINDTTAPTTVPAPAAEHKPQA
T1 sequence (O34142 266-816 L321K): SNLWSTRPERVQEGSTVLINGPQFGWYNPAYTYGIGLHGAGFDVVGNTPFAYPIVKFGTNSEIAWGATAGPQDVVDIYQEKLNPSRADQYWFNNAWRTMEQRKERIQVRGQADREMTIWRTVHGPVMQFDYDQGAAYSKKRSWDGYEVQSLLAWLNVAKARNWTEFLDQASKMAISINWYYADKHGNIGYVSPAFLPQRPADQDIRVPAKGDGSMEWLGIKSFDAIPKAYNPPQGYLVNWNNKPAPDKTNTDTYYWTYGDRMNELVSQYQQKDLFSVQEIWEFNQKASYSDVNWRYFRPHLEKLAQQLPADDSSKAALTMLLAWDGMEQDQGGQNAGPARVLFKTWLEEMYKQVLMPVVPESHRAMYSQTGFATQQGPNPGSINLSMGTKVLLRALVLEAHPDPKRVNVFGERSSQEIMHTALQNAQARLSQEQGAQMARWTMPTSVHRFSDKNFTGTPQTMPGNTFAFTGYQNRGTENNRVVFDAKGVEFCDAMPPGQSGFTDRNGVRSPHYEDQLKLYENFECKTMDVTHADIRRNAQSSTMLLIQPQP
Assay: Deacylation kinetics and phenylacetic acid product inhibition, mutant B:L56K
Assay type: biochemical
Conditions: from progress curves of NIPAB deacylation, 25° C., 0.1 M NaH2PO4.H2O buffer pH 7.5, read-out: Ki Phenylacetic acid (inhibition constant, dissociation constant)
Experimental: In order to determine enzymatic activity the acylases were incubated with substrate at room temperature in buffered solution. In case β-lactamase impurity was expected to be present in the enzyme preparations, 1.0 mM -lactamase inhibitor 6-bromo-penicillanic acid was added to the assay. The reactions were stopped by adding an excess PMSF. For some mutants which were less sensitive to PMSF inhibition, the reactions were stopped by adding 0.5 M HCl or 0.5 M acetic acid until the pH was between 3 and 4. When reactions were subsequently analysed by HPLC, the reactions were stopped by dilution with the correponding elution solvent (see table 1). […]
The composition of the reaction mixtures was determined by high-performanceliquid chromatography (HPLC)(table 1). Concentrations were determined by using standards of known concentration.
In a continuous assay Penicillin G acylase was assayed spectro-fotometrically with the chromogenic substrate NIPAB [6-nitro-3-phenylacetamido-benzoic acid]. The liberation of 3-amino-6-nitrobenzoic acid was monitored by measuring the extinction at 405 nm in a Kontron 610 kinetic spectrofotometer. […]
Initial rate measurements were performed with excess substrate over the enzyme. Catalytic parameters were derived from least-squares fitting of the measured initial rates plotted for various substrate concentrations according to the Michaelis-Menten equation. […]

O=C(O)Cc1ccccc1 [phenylacetic acid]
Ki: 115 µM
